Data reported in patent US20260159486A1, “BENZO[H]QUINAZOLINE-4-AMINE DERIVATIVES FOR THE TREATMENT OF CANCER” (Redona Therapeutics, Inc., priority 2021, published 2026).

Test system: CAL-51 cells
Assay: CAL-51 proliferation assay
Type: cell-based
Details: Homo sapiens, CAL-51, 72 h, YO-PRO-1 Iodide readout
Method in brief: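 Cells seeded at 750 per well, treated next day for 72 h at 37 °C with 0.5% final DMSO. Cell number read by YO-PRO-1 fluorescence after lysis, normalized to DMSO (100%) and time-zero cells (0%). GI50 from 4-parameter logistic fit, maximum constrained to 100%.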

**Q.** How did the GI50 turn out when COCCN(C)c1c(O[C@H]2CC[C@H](N)CC2)ccc2c1CC(C)(C)c1c(N)ncnc1-2 [Example 13, 8-(trans-4-aminocyclohexoxy)-N7-(2-methoxyethyl)-N7,5,5-trimethyl-6H-benzo[h]quinazoline-4,7-diamine] was run?
**A.** Its GI50 is < 100 nM.
